Data: PMC9977398, “Next-generation membrane-active glycopeptide antibiotics that also inhibit bacterial cell division” (Chemical Science, 2023)

Key:
[1] = In-vivo toxicity in mice (LD50); design: species or system Balb/c female mice; conditions: for LD50: single injection, 14 days
Procedure: The in vitro activity, low toxicity, and stability in plasma and liver homogenate, supported the potential of VanQAmC10 as a candidate for the treatment of bacterial infections. The efficacy of VanQAmC10 (8) against MRSA was tested in a neutropenic mouse thigh infection model. Infection was established by injecting them with 5 × 10^5 CFU of MRSA in the thigh. 1 h and 13 h post-infection, mice were treated with 12 mg kg^−1 of vancomycin and VanQAmC10 administered intraperitoneally (Fig. 6B). The mice were sacrificed 24 h post-infection. […] In the untreated group, the bacterial load increased to 8 log CFU g^−1. […] However, treatment with VanQAmC10 reduced the bacterial load to 3.3 log CFU g^−1, which is a 1.5 log CFU g^−1 lower bacterial load than observed against vancomycin.
Table S1: Activity of VanQAmC10 in mouse plasma and liver homogenate against MRSA […]
MIC of VanQAmC10 post incubation in (μM)
Bacteria Plasma Liver homogenate Media […]
when administered subcutaneously. […]
of VanQAmC10 as compared to the previously developed molecule, VanQC14.3 This reduced toxicity of VanQAmC10 can be attributed to the presence of the amide spacer between the cationic moiety and the alkyl chain as mentioned in the previous section.
Table S2 In-vivo toxicity (LD50 values) of VanQAmC10 by various modes of administration Mode of administration LD 50 (mg/kg)
All reagents were purchased from Sigma-Aldrich and Spectrochem and used without further purification. All the solvents of reagent grade were purchased from Spectrochem and SD Fine.
Chloroform for column chromatography was purchased from SD Fine chemicals and distilled prior to use. HPLC grade acetonitrile was purchased from Spectrochem. Analytical thin layer chromatography (TLC) was performed on E. Merck TLC plates pre-coated with silica gel 60 F254 (250 μm thickness). Vancomycin derivative was purified by reverse phase HPLC using 0.1 % trifluoroacetic acid (TFA) in water/acetonitrile (0-100 %) as mobile phase. HPLC […]
The doses for administration, were given modified OECD guidelines. LD50 was determined using Spearman-Karber method. […]

human erythrocytes = tested on: human erythrocytes; design: method as in PMID 32195571; conditions: previously reported; cited from earlier work
[2] = tested on: VRSA 12 (vancomycin-resistant S. aureus); design: method as in PMID 32195571; conditions: previously reported; cited from earlier work
A. baumannii = tested on: A. baumannii; design: method as in PMID 32195571; conditions: cited from earlier work

**Q.** Which “dose well tolerated, all mice survived” value ([1]; intraperitoneal) does the source give for `CCCCCCCCCCNC(=O)C[N+](C)(C)CCCNC(=O)C1NC(=O)C2NC(=O)C(NC(=O)C3NC(=O)C(CC(N)=O)NC(=O)C(NC(=O)C(CC(C)C)NC)C(O)c4ccc(c(Cl)c4)Oc4cc3cc(c4OC3OC(CO)C(O)C(O)C3OC3CC(C)(N)C(O)C(C)O3)Oc3ccc(cc3Cl)C2O)c2ccc(O)c(c2)-c2c(O)cc(O)cc21` (stereo not drawn) [VanQAmC10 (8)] here?
**A.** 130 mg/kg

**Q.** And the LD50 ([1]; intraperitoneal)?
**A.** greater than 130 mg/kg

**Q.** And the LD50 ([1]; subcutaneous)?
**A.** greater than 160 mg kg^−1

**Q.** What about the HC50 (human erythrocytes) of the same compound?
**A.** >500 µM

**Q.** And the “Minimum inhibitory concentration, VRSA 12” value [2]?
**A.** 1.6 µM

**Q.** What about the “resistance induction in A. baumannii” value (A. baumannii) of the same compound?
**A.** does not induce resistance
